Experimental data as given in patent US7604978B2, “Inhibition of biofilm formation” (Sequoia Sciences, Inc., priority 2004, dated 2009).

Experiments:
E. coli JM109 genes = test: DNA microarray, genes induced by asiatic acid; assay type: cell-based; details: M9C glucose media
Procedure: The same amount of ethanol was supplemented to eliminate solvent effects. The cultures were grown to an OD600 of 0.9. The cells were centrifuged in a microcentrifuge for 15 seconds at 20,000×g in mini bead beater tubes (Biospec, Bartlesville, Okla.) that were cooled to -80° C. before sampling. The cell pellets were flash frozen in a dry ice-ethanol bath and stored at -80° C. until RNA isolation. To lyse the cells, 1.0 mL RLT buffer (Qiagen, Inc., Valencia, Calif.) and 0.2 mL 0.1 mm zirconia/silica beads (Biospec) were added to the frozen bead beater tubes containing the cell pellets. The tubes were closed tightly and beat for 30 seconds at the maximum speed in a mini bead beater (cat. no. 3110BX, Biospec). The total RNA was isolated by following the protocol of the RNeasy Mini Kit (Qiagen) including an on-column DNase digestion with RNase-free DNase I (Qiagen). OD260 was used to quantify the RNA yield. OD260/OD280 and […]/16S rRNA were measured using a 2100 Bioanalyzer (Agilent Technologies, Palo Alto, Calif.) to check the purity and integrity of RNA (RNeasy Mini handbook, Qiagen). The E. coli DNA microarrays were prepared as described previously by Wei, Y. et al (Journal of Bacteriology, 2001, 183 (2) p. 545-556). […] The double-strand PCR products were denatured in 50% dimethyl sulfoxide and spotted onto aminosilane slides (Full Moon Biosystems, Sunnyvale, Calif.) as probes to hybridize with the mRNA-derived cDNA samples. It has been shown that each array can detect 4228 of the 4290 E. coli ORFs. Each gene has two spots per slide. Briefly, the total RNA from the E. coli K12 samples grown with and without ursolic acid was first converted into labeled cDNA. […] The Cy3-labeled sample without ursolic acid and the Cy5-labeled ursolic acid sample (with 10 or 30 μg/mL ursolic acid) were hybridized on the first slide. Similarly, the Cy5-labeled sample without ursolic acid and the Cy3-labeled ursolic acid sample were hybridized on the second slide. Since each gene has two spots on a slide, the two hybridizations generated eight data points for each gene (four points for the sample without ursolic acid and four points for the ursolic acid sample). The microarray experiments with dye-swapping were repeated for both concentrations of ursolic acid. […] The arrays were rinsed with double-distilled water and were spun dry by centrifugation. Labeled cDNA (6 μg) was concentrated to 10 μl of total volume and was mixed with 10 μl of 4×cDNA hybridization solution (Full Moon Biosystems) and 20 μl of formamide (EM Science, Gibbstown, N.J.). The hybridization mix was heated to 95° C. for 2 min and was added to the DNA microarrays; each array was covered with a coverslip (Corning, Big Flats, N.Y.) and was incubated overnight at 37° C. for hybridization. When the hybridization was finished, the coverslips were removed in 1×SSC-0.1% SDS at room temperature, and the arrays were washed once for 5 min in 1×SSC-0.1% SDS at 40° C., twice for 10 min in 0.1×SSC-0.1% SDS at 40° C., and twice for 1 min in 0.1×SSC at 40° C. The arrays were quickly rinsed by dipping in room-temperature double-distilled water and were then spun dry by centrifugation. The hybridized slides were scanned with the Generation III Array Scanner (Molecular Dynamics Corp.). Readings at 570 and 670 nm was used to quantify the probes labeled with Cy3 and Cy5 separately. The signal was quantified with Array Vision 4.0 or 6.0 software (Imaging Research, St. Catherines, Ontario, Canada). […] P-values were calculated on log-transformed, normalized intensities. Including the p-value criterion ensures the reliability of the induced/repressed gene list. Normalization was relative to the median total fluorescent intensity per slide per channel. Example 3 was repeated, except asiatic acid ([…]) was added instead of ursolic acid.

E. coli JM109 = test: Biofilm inhibition by asiatic acid; assay type: cell-based; details: Escherichia coli, JM 109, E. coli JM109, MC9 glucose media
Procedure: Inhibition of biofilm formation by E. coli K12 [R1drd19], P. aeruginosa PAO1, and V harveyi BB120 by the addition of 10 μg/mL ursolic acid. For E. coli K12 [R1drd19], data were collected 16 hours after addition of ursolic acid to a 24 hour biofilm in LB medium; for P. aeruginosa PAO1, data were collected 18 hours after addition of ursolic acid with inoculation in LB medium plus 1% sodium citrate; and for V. harveyi BB120, data were collected 18 hours after addition of ursolic acid with inoculation in M9 medium. All biofilm mass readings at OD540 were normalized based on the reading of wild type without ursolic acid which was normalized to 1. One standard deviation is shown.
Example 1 was repeated, except asiatic acid was added with inoculation in E. coli JM109 in MC9 glucose media.

C[C@H]1[C@H](C)CC[C@]2(C(=O)O)CC[C@]3(C)C(=CC[C@@H]4[C@@]5(C)C[C@@H](O)[C@H](O)[C@@](C)(CO)[C@@H]5CC[C@]43C)[C@H]12 [asiatic acid]
2.83: ER (expression ratio) gene b0829 (E. coli JM109 genes; 10 μg/mL asiatic acid) | ER (expression ratio) gene iIvG_1 (E. coli JM109 genes; 10 μg/mL asiatic acid) | ER (expression ratio) gene yicG (E. coli JM109 genes; 10 μg/mL asiatic acid) | ER (expression ratio) gene yedO (E. coli JM109 genes; 30 μg/mL asiatic acid) | ER (expression ratio) gene yicL (E. coli JM109 genes; 30 μg/mL asiatic acid)
5.66: ER (expression ratio) gene ybiK (E. coli JM109 genes; 30 μg/mL asiatic acid)
2.14: ER (expression ratio) gene b1963 (E. coli JM109 genes; 10 μg/mL asiatic acid) | ER (expression ratio) gene b2332 (E. coli JM109 genes; 10 μg/mL asiatic acid) | ER (expression ratio) gene dgt (E. coli JM109 genes; 10 μg/mL asiatic acid) | ER (expression ratio) gene glgS (E. coli JM109 genes; 10 μg/mL asiatic acid) | ER (expression ratio) gene b2420 (E. coli JM109 genes; 30 μg/mL asiatic acid) | ER (expression ratio) gene b2531 (E. coli JM109 genes; 30 μg/mL asiatic acid) | ER (expression ratio) gene pssR (E. coli JM109 genes; 30 μg/mL asiatic acid) | ER (expression ratio) gene yeeE (E. coli JM109 genes; 30 μg/mL asiatic acid) | ER (expression ratio) gene yjaE (E. coli JM109 genes; 30 μg/mL asiatic acid)
3.25: ER (expression ratio) gene b2670 (E. coli JM109 genes; 10 μg/mL asiatic acid) | ER (expression ratio) gene ftn (E. coli JM109 genes; 10 μg/mL asiatic acid) | ER (expression ratio) gene yeeE (E. coli JM109 genes; 10 μg/mL asiatic acid) | ER (expression ratio) gene cysI (E. coli JM109 genes; 30 μg/mL asiatic acid) | ER (expression ratio) gene cysM (E. coli JM109 genes; 30 μg/mL asiatic acid) | ER (expression ratio) gene fliY (E. coli JM109 genes; 30 μg/mL asiatic acid)
7.46: ER (expression ratio) gene yjiD (E. coli JM109 genes; 10 μg/mL asiatic acid) | ER (expression ratio) gene cysN (E. coli JM109 genes; 30 μg/mL asiatic acid)
11.31: ER (expression ratio) gene cysN (E. coli JM109 genes; 10 μg/mL asiatic acid)
5.28: ER (expression ratio) gene ygbE (E. coli JM109 genes; 30 μg/mL asiatic acid)
3.48: ER (expression ratio) gene cysA (E. coli JM109 genes; 30 μg/mL asiatic acid) | ER (expression ratio) gene cysK (E. coli JM109 genes; 30 μg/mL asiatic acid) | ER (expression ratio) gene iIvL (E. coli JM109 genes; 30 μg/mL asiatic acid)
2.00: ER (expression ratio) gene yjaE (E. coli JM109 genes; 10 μg/mL asiatic acid) | ER (expression ratio) gene b2834 (E. coli JM109 genes; 30 μg/mL asiatic acid) | ER (expression ratio) gene iIvG_1 (E. coli JM109 genes; 30 μg/mL asiatic acid) | ER (expression ratio) gene pstS (E. coli JM109 genes; 30 μg/mL asiatic acid) | ER (expression ratio) gene tauA (E. coli JM109 genes; 30 μg/mL asiatic acid)
~75%: inhibition at 5 µg/mL (E. coli JM109; 5 μg/ml)
18.38: ER (expression ratio) gene nlpA (E. coli JM109 genes; 10 μg/mL asiatic acid) | ER (expression ratio) gene sbp (E. coli JM109 genes; 10 μg/mL asiatic acid)
2.30: ER (expression ratio) gene b2834 (E. coli JM109 genes; 10 μg/mL asiatic acid) | ER (expression ratio) gene bolA (E. coli JM109 genes; 10 μg/mL asiatic acid) | ER (expression ratio) gene iIvL (E. coli JM109 genes; 10 μg/mL asiatic acid) | ER (expression ratio) gene msrA (E. coli JM109 genes; 10 μg/mL asiatic acid) | ER (expression ratio) gene yaiB (E. coli JM109 genes; 10 μg/mL asiatic acid) | ER (expression ratio) gene b1729 (E. coli JM109 genes; 30 μg/mL asiatic acid) | ER (expression ratio) gene b1963 (E. coli JM109 genes; 30 μg/mL asiatic acid) | ER (expression ratio) gene b2332 (E. coli JM109 genes; 30 μg/mL asiatic acid) | ER (expression ratio) gene dgt (E. coli JM109 genes; 30 μg/mL asiatic acid) | ER (expression ratio) gene glgS (E. coli JM109 genes; 30 μg/mL asiatic acid) | ER (expression ratio) gene yeeD (E. coli JM109 genes; 30 μg/mL asiatic acid) | ER (expression ratio) gene yicG (E. coli JM109 genes; 30 μg/mL asiatic acid)
6.50: ER (expression ratio) gene ybiK (E. coli JM109 genes; 10 μg/mL asiatic acid) | ER (expression ratio) gene yicL (E. coli JM109 genes; 10 μg/mL asiatic acid) | ER (expression ratio) gene cysD (E. coli JM109 genes; 30 μg/mL asiatic acid)
4.00: ER (expression ratio) gene cysA (E. coli JM109 genes; 10 μg/mL asiatic acid) | ER (expression ratio) gene fliY (E. coli JM109 genes; 10 μg/mL asiatic acid) | ER (expression ratio) gene cysJ (E. coli JM109 genes; 30 μg/mL asiatic acid) | ER (expression ratio) gene cysW (E. coli JM109 genes; 30 μg/mL asiatic acid) | ER (expression ratio) gene yaeG (E. coli JM109 genes; 30 μg/mL asiatic acid)
6.96: ER (expression ratio) gene cysD (E. coli JM109 genes; 10 μg/mL asiatic acid) | ER (expression ratio) gene ygbE (E. coli JM109 genes; 10 μg/mL asiatic acid) | ER (expression ratio) gene cysC (E. coli JM109 genes; 30 μg/mL asiatic acid)
6.06: ER (expression ratio) gene cysB (E. coli JM109 genes; 10 μg/mL asiatic acid)
2.46: ER (expression ratio) gene b2531 (E. coli JM109 genes; 10 μg/mL asiatic acid) | ER (expression ratio) gene pssR (E. coli JM109 genes; 10 μg/mL asiatic acid) | ER (expression ratio) gene tauA (E. coli JM109 genes; 10 μg/mL asiatic acid) | ER (expression ratio) gene ybgR (E. coli JM109 genes; 10 μg/mL asiatic acid) | ER (expression ratio) gene b0829 (E. coli JM109 genes; 30 μg/mL asiatic acid) | ER (expression ratio) gene ybgR (E. coli JM109 genes; 30 μg/mL asiatic acid) | ER (expression ratio) gene yrbL (E. coli JM109 genes; 30 μg/mL asiatic acid)
13.00: ER (expression ratio) gene cbl (E. coli JM109 genes; 30 μg/mL asiatic acid)
13.93: ER (expression ratio) gene cbl (E. coli JM109 genes; 10 μg/mL asiatic acid)
9.85: ER (expression ratio) gene nlpA (E. coli JM109 genes; 30 μg/mL asiatic acid) | ER (expression ratio) gene yjiD (E. coli JM109 genes; 30 μg/mL asiatic acid)
3.73: ER (expression ratio) gene cysJ (E. coli JM109 genes; 10 μg/mL asiatic acid) | ER (expression ratio) gene cysM (E. coli JM109 genes; 10 μg/mL asiatic acid) | ER (expression ratio) gene yedO (E. coli JM109 genes; 10 μg/mL asiatic acid) | ER (expression ratio) gene yeeD (E. coli JM109 genes; 10 μg/mL asiatic acid) | ER (expression ratio) gene yciW (E. coli JM109 genes; 30 μg/mL asiatic acid)
3.03: ER (expression ratio) gene yciW (E. coli JM109 genes; 10 μg/mL asiatic acid) | ER (expression ratio) gene cysH (E. coli JM109 genes; 30 μg/mL asiatic acid) | ER (expression ratio) gene ftn (E. coli JM109 genes; 30 μg/mL asiatic acid)
2.64: ER (expression ratio) gene b1729 (E. coli JM109 genes; 10 μg/mL asiatic acid) | ER (expression ratio) gene pstS (E. coli JM109 genes; 10 μg/mL asiatic acid) | ER (expression ratio) gene yrbL (E. coli JM109 genes; 10 μg/mL asiatic acid) | ER (expression ratio) gene b2670 (E. coli JM109 genes; 30 μg/mL asiatic acid) | ER (expression ratio) gene bolA (E. coli JM109 genes; 30 μg/mL asiatic acid) | ER (expression ratio) gene msrA (E. coli JM109 genes; 30 μg/mL asiatic acid) | ER (expression ratio) gene yaiB (E. coli JM109 genes; 30 μg/mL asiatic acid)
4.59: ER (expression ratio) gene cysH (E. coli JM109 genes; 10 μg/mL asiatic acid) | ER (expression ratio) gene cysK (E. coli JM109 genes; 10 μg/mL asiatic acid) | ER (expression ratio) gene cysW (E. coli JM109 genes; 10 μg/mL asiatic acid) | ER (expression ratio) gene yaeG (E. coli JM109 genes; 10 μg/mL asiatic acid)
12.13: ER (expression ratio) gene sbp (E. coli JM109 genes; 30 μg/mL asiatic acid)
10.56: ER (expression ratio) gene cysC (E. coli JM109 genes; 10 μg/mL asiatic acid)
4.29: ER (expression ratio) gene b2420 (E. coli JM109 genes; 10 μg/mL asiatic acid) | ER (expression ratio) gene cysI (E. coli JM109 genes; 10 μg/mL asiatic acid) | ER (expression ratio) gene cysP (E. coli JM109 genes; 10 μg/mL asiatic acid) | ER (expression ratio) gene cysB (E. coli JM109 genes; 30 μg/mL asiatic acid)
~85%: inhibition at 15 µg/mL (E. coli JM109; 15 μg/ml)
4.92: ER (expression ratio) gene cysU (E. coli JM109 genes; 10 μg/mL asiatic acid) | ER (expression ratio) gene cysP (E. coli JM109 genes; 30 μg/mL asiatic acid) | ER (expression ratio) gene cysU (E. coli JM109 genes; 30 μg/mL asiatic acid)
~80%: inhibition at 10 µg/mL (E. coli JM109; 10 μg/ml)
